Where two headings read alike, the source gives them in different places.
Key:
HepG2 cells = test: Cholesterol synthesis in HepG2 cell culture model (14C-acetate incorporation); format: cell-based, human; settings: for activity at 10 µM: Homo sapiens, HepG2 cells, 4 hours incubation, read-out: Cholesterol Biosynthesis
Procedure: (§1) The human hepatoma HepG2 cell culture model was employed to compare the intrinsic activities of the synthetic analogues relative to the tocotrienols. HepG2 cells were incubated with the indicated compounds for 4 hours at 10 μM. Cholesterol synthesis was assayed by ^14 C-acetate incorporation over the final hour of incubation, and HMG-CoA reductase suppression (specific activity) was assayed in the microsomal fraction isolated from parallel cultures at the end of the 4 hour incubation.

[1] = In vivo hypocholesterolemic activity in normocholesterolemic chickens (serum lipid parameters); settings: for response vs control in vivo at 4 mg/kg/day: Gallus gallus, po, 672 h
Procedure: (§2) Hypocholesterolemic activity was evaluated for the synthetic analogues using γ-tocotrienol as a control in normocholesterolemic chickens. Newborn male chicks (6-10 for each group) were raised on a standard corn-soybean-based control diet for two weeks and then were switched to either control or experimental diets for four weeks. Drug treatment consisted of the addition of test compound to the corn-soybean-based. At the end of the feeding period, all the birds were fasted (about 36 hours) and refed (about 48 hours) to induce cholesterolgenic enzymes prior to sacrifice. The specific activity of HMG-CoA reductase, total serum cholesterol levels, HDL/LDL cholesterol pools, and triglyceride levels (data not shown) were examined (Table II).
(§3) Effects of BMS Compounds on Lipid Parameters in Male
(§4) Orally dosed for 4-weeks at 4 mg/kg/day

HMG-CoA reductase [2] = target: T1, HMG-CoA reductase (Homo sapiens, UniProt P04035); test: HMG-CoA reductase suppression (specific activity, microsomal fraction of HepG2 cells); format: cell-based; settings: 4 hours incubation, read-out: HMGR Suppression
T1 construct: assayed in the microsomal fraction isolated from parallel cultures; endogenous in cells; host or cells: HepG2 (human hepatoma)
T1 sequence (P04035 1-888): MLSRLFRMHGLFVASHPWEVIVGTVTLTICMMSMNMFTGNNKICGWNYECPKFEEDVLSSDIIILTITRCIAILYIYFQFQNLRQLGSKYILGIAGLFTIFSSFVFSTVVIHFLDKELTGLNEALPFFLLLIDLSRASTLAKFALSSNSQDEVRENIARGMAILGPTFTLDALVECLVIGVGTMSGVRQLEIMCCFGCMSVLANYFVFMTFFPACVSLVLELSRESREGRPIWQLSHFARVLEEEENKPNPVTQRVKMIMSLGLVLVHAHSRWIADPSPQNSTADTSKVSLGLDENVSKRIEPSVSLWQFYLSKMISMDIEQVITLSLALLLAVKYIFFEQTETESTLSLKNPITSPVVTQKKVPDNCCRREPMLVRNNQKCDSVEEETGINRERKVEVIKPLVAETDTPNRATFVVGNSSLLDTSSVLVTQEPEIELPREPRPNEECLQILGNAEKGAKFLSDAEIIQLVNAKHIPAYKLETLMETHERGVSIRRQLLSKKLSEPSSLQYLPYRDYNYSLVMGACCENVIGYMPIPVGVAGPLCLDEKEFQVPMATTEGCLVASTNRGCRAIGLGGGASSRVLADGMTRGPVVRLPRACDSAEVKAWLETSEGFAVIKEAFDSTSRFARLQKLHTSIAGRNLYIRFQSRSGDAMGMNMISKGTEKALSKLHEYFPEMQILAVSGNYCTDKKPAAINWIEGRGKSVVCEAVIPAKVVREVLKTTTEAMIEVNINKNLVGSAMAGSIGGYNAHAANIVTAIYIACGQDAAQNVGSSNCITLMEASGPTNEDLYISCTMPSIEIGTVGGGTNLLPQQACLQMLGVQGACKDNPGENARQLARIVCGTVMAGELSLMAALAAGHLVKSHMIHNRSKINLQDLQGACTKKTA
Procedure: as §1

HMG-CoA reductase [3] = test: HMG-CoA reductase specific activity in normocholesterolemic chickens; format: in vivo; settings: male chickens, orally dosed for 4 weeks at 4 mg/kg/day
Procedure: as §2, §3, §4

[4] = man, cited from earlier work
[5] = test system: submitochondrial particles; settings: in words; cited from earlier work
LDL = settings: in words; cited from earlier work
[6] = test system: rat liver microsomes and mitochondrial membranes; settings: in words; cited from earlier work
[7] = male chickens, orally dosed for 4 weeks at 4 mg/kg/day, read-out: HDL-C
[8] = male chickens, orally dosed for 4 weeks at 4 mg/kg/day, read-out: LDL-C
[9] = male chickens, orally dosed for 4 weeks at 4 mg/kg/day, total serum cholesterol, read-out: Tot.-C

Structure (SMILES) | activity at 10 µM (HepG2 cells) [%] | response vs control in vivo at 4 mg/kg/day [1, 7] [%] | response vs control in vivo at 4 mg/kg/day [1, 8] [%] | response vs control in vivo at 4 mg/kg/day [1, 9] [%] | further results
CC(C)=CCC/C(C)=C/CC/C(C)=C/CC1=CC(=O)C=CC1=O [Example 10, 2-(3,7,11-Trimethyl-2(E),6(E),10-Dodecatrienyl)-2,5-Cyclohexadiene-4-Dione] | 95 |  |  |  | 
CC(C)=CCC/C(C)=C/CC/C(C)=C/CCC(O)CCC1=CC(=O)C=CC1=O (stereo not drawn) [Example 11, 2-(3-Hydroxy-7,11,15-Trimethyl-6(E),10(E),14-Hexadecatrienyl)-2,5-Cyclohexadiene-1,4-Dione] | 75 | 96.9 | 80.1 | 87.2 | 
CC(C)=CCC/C(C)=C/CC/C(C)=C/CCC(O)CCC1=CC(=O)C(C)=C(C)C1=O (stereo not drawn) [Example 12, 5-(3-Hydroxy-7,11,15-Trimethyl-6(E),10(E),14-Hexadecatrienyl)-2,3-Dimethyl-2,5-Cyclohexadiene-1,4-Dione] | 3 | 95 | 73 | 82.7 | activity at 10 µM (HMG-CoA reductase [2]): 74%
CC1=C(C)C(=O)C(CCC(C)(O)CC/C=C(\C)CCc2cccc(C(F)(F)F)c2)=CC1=O (stereo not drawn) [Example 13, 5-(3,7-Dimethyl-3-Hydroxy-9-[3-(Trifluoromethyl)phenyl]-6(E)-Nonenyl)-2,3-Dimethyl-2,5-cyclohexadiene-1,4-Dione] |  | 75.6 | 32 | 57.7 | HMGR (HMG-CoA reductase [3]): 59.9 % of Control
CC(C)=CCC/C(C)=C/CC/C(C)=C/CCC(C)(O)CCC1=CC(=O)c2ccccc2C1=O (stereo not drawn) [Example 14, 2-(3-Hydroxy-3,7,11,15-Tetramethyl-6(E),10(E),14-Hexadecatrienyl)-1,4-Naphthalene-1,4-dione] | 10 | 94.7 | 69.4 | 82.4 | 
CC(C)=CCC/C(C)=C/CC/C(C)=C/CCC(C)(O)CCC1=CC(=O)C(C)=C(C)C1=O (stereo not drawn) [Example 15, 5-(3-Hydroxy-3,7,11,15-Tetramethyl-6(E),10(E),14-Hexadecatrienyl)-2,3-Dimethyl-2,5-cyclohexadiene-1,4-Dione] | 89 | 90.5 | 59 | 76.7 | activity in the chick model, relative to γ-tocotrienol ([1]; in words): comparable activity to γ-tocotrienol in the chick model; cholesterol/HMGR suppression in vivo, relative to γ-tocotrienol ([1]; in words, refers to Table II): very similar cholesterol/HMGR suppression in vitro and in vivo; activity at 10 µM (HMG-CoA reductase [2]): 79%; activity in the cholesterol suppression assay in vitro (HepG2 cells; in words): very active in the cholesterol suppression assay in vitro; cholesterol/HMGR suppression in vitro, relative to γ-tocotrienol (HepG2 cells; in words, refers to Table I): very similar cholesterol/HMGR suppression in vitro and in vivo; HMGR (HMG-CoA reductase [3]): 67.4 % of Control
CC(C)=CCC/C(C)=C/CC/C(C)=C/CCC(C)(O)CCC1=CC(=O)C=CC1=O (stereo not drawn) [Example 16, 2-(3-Hydroxy-3,7,11,15-Tetramethyl-6(E),10(E),14-Hexadecatrienyl)-2,5-cyclohexadiene-1,4-Dione Hydrate] | 74 | 95.8 | 94.9 | 93.8 | 
COC1=C(OC)C(=O)C(CCCCCCCCCCO)=C(C)C1=O [Idebenone] |  |  |  |  | absorption rate ([4]; in words): absorbed rapidly; intestinal absorption ([4]; in words): low intestinal absorption; bioavailability ([4]; low intestinal absorption): 15-30%
COc1c(O)c(C)c(C/C=C(\C)CC/C=C(\C)CC/C=C(\C)CC/C=C(\C)CC/C=C(\C)CC/C=C(\C)CC/C=C(\C)CC/C=C(\C)CC/C=C(\C)CCC=C(C)C)c(O)c1OC [Ubiquinol] |  |  |  |  | lipid peroxidation inhibition [5]: inhibits lipid peroxidation
CC(C)=CCC/C(C)=C/CC/C(C)=C/CC/C(C)=C/CC1=C(C)C(=O)c2ccccc2C1=O [Vitamin K2, reference compound] |  | 105 | 146 | 116 | cholesterol levels in vivo ([1]; in words, Vitamin K2 (n=4), refers to Table II): appears to actually elevate cholesterol levels
COc1c(O)c(C)c(C/C=C(\C)CC/C=C(\C)CC/C=C(\C)CC/C=C(\C)CC/C=C(\C)CC/C=C(\C)CC/C=C(\C)CC/C=C(\C)CC/C=C(\C)CCC=C(C)C)c(O)c1OC [ubiquinol-10] |  |  |  |  | LDL oxidation inhibition (LDL): inhibitor of LDL oxidation; LDL oxidation inhibition efficiency relative to tocopherol (LDL): much more efficient than tocopherol
COC1=C(OC)C(=O)C(C/C=C(\C)CC/C=C(\C)CC/C=C(\C)CC/C=C(\C)CC/C=C(\C)CC/C=C(\C)CC/C=C(\C)CC/C=C(\C)CC/C=C(\C)CCC=C(C)C)=C(C)C1=O [ubiquinone] |  |  |  |  | effect on tocopherol [6]: sparing effect on tocopherol
CC(C)=CCC/C(C)=C/CC/C(C)=C/CC[C@]1(C)CCc2cc(O)c(C)c(C)c2O1 [γ-Tocotrienol, reference compound] | 29 |  |  |  | response vs control in vivo at 4 mg/kg/day ([1]; read-out: HDL-C): 87%; response vs control in vivo at 4 mg/kg/day ([1]; read-out: LDL-C): 54.8%; response vs control in vivo at 4 mg/kg/day ([1]; read-out: Tot.-C): 76.3%; activity at 10 µM (HMG-CoA reductase [2]): 65%

From patent publication US5318993A, “Antihyperlipidemic benzoquinones” (Bristol-Myers Squibb Company, priority 1993, dated 1994)
